From patent publication US20190192699A1, “NUCLEAR IMAGING AND RADIOTHERAPEUTICS AGENTS TARGETING CARBONIC ANHYDRASE IX AND USES THEREOF” (THE JOHNS HOPKINS UNIVERSITY, priority 2016, published 2019)

Experiments:
CAIX [1] = biological target: T1, CAIX (Homo sapiens, UniProt Q16790); test: Competitive fluorescence polarization assay for [113/115In]XYIMSR-01; format: binding; design: purchased R&D Systems; conditions: for IC50: 100 nM CAIX, 80 nM FITC-labeled 8, read-out: IC50, inhibition of fluorescence polarization of FITC labeled 8; for binding affinity to CAIX (in words): competitive fluorescence polarization
From the text: (§1) General Procedures. Solvents and chemicals obtained from commercial sources were of analytical grade or better and used without further purification. Fmoc-protected azidolysine, HBTU, and N-α-fmoc-L-aspartic acid α-tert-butyl ester were purchased from Chem Impex International, Inc. (Wooddale, Ill.). Carrier-free [^111In]InCl3 was purchased from MDS Nordion (Ottawa, ON, Canada). DOTA-NHS-ester (1,4,7,10-tetraazacyclododecane-1,4,7,10-tetraacetic acid mono N-hydroxysuccinimide ester) was purchased from Macrocyclics, Inc. (Dallas, Tex.). Indium (III) nitrate, triethylsilane (Et3SiH), N,N-diisopropylethylamine (DIEA), triethylamine (TEA), piperidine, 4,4-bis(4-hydroxyphenyl)valeric acid, copper iodide (CuI), and tris[(1-benzyl-1H-1,2,3-triazol-4-yl)methyl]amine (TBTA) were purchased from Sigma-Aldrich (Saint Louis, Mo.). Pre-loaded O-bis-(aminoethyl)ethylene glycol on trityl resin was purchased from EMD Millipore (Billerica, Mass.). Flash chromatography was performed using MP SiliTech 32-63 D 60 Å silica gel purchased from Bodman (Aston, Pa.). Recombinant human CAIX was purchased from R&D Systems (Minneapolis, Minn.). 1H NMR spectra were recorded on a Bruker Ultrashield 500 MHz spectrometer. Chemical shifts (δ) were reported in ppm downfield by reference to proton resonances resulting from incomplete deuteration of the NMR solvent. ESI mass spectra were obtained on a Bruker Daltonics Esquire 3000 Plus spectrometer (Billerica, Mass.).
Competitive Fluorescence Polarization Assay for [^113/115In]XYIMSR-01. Fluorescence polarization (FP) experiments were performed in 21 μL of the assay buffer (12.5 mM Tris-HCl, pH 7.5, 75 mM NaCl) in black flat bottom 384-well microplates (Corning, Inc., New York, N.Y.) The FP reaction employed 100 nM of purified CAIX (R&D systems, Minneapolis, Minn.) and 80 nM FITC-labeled 8 (Wichert, et al., 2015) within the assay buffer. The FP values were measured as mP units using the Victor3 multi-label plate reader equipped with excitation (485 nm) and emission (535 nm) filters (Perkin Elmer, Waltham, Mass.). 100 nM CAIX was incubated with serially diluted (from 1 μM to 61 fM) concentrations of the three targeting molecules, 2, XYIMSR-01, and [^113/115In]XYIMSR-01 for 30 min at room temperature in 384-well plates. 80 nM 8 was added to each well and the reaction was incubated for 30 min at room temperature followed by FP measurement. Experiments were carried out in triplicate and the concentration resulting in 50% response (IC50) was calculated in GraphPad Prism 5 (GraphPad Software, La Jolla, Calif.) using the sigmoidal dose-response regression function.

CAIX [2] = biological target: T1, CAIX; test: Competitive fluorescence polarization assay for [Al19F]XYIMSR-04, [63/65Cu]XYIMSR-06 and [175Lu]XYIMSR-01; format: binding; design: purchased R&D Systems; conditions: 100 nM CAIX, 80 nM FITC-labeled ligand; read-out: IC50, competitive fluorescence polarization (similar method)
From the text: as §1
Competitive Fluorescence Polarization Assay for [Al^19F]XYIMSR-04, [^63/65Cu]XYIMSR-06, and [^175Lu]XYIMSR-01. Fluorescence polarization (FP) experiments were performed in 21 μL of the assay buffer (12.5 mM Tris-HCl, pH 7.5, 75 mM NaCl) in transparent flat bottom 384 well Small Volume™ LoBase Microplates (Greiner Bio-One, Frickenhausen Germany). The FP reaction employed 100 nM of purified CAIX (R&D systems, Minneapolis, Minn.) and 80 nM FITC-labeled ligand within the assay buffer. The FP values were measured as mP units using the Safire2™ plate reader (Tecan, Morrisville, N.C.) with excitation at 475 nm and emission at 532 nm emission. 100 nM CAIX was incubated with serially diluted (from 8 μM to 488.2 fM) concentrations of the […] targeting molecules, 2, [Al^19F]XYIMSR-04, [^63/65Cu]XYIMSR-06 and [^175Lu]XYIMSR-01 for 30 min at room temperature in 384 well plates. 80 nM FITC-labeled ligand was added to each well and the reaction was incubated for 30 min at room temperature followed by FP measurements. Experiments were carried out in triplicate and the concentration resulting in 50% response (IC50) was calculated in GraphPad Prism 5 (GraphPad Software, La Jolla, Calif.) using the sigmoidal dose-response regression function.

Row | Compound | IC50 (CAIX [1]) | binding affinity to CAIX (in words) (CAIX [1]) | IC50 (CAIX [2])
1 | CC(CCC(=O)N[C@@H](CC(=O)N[C@@H](CC(=O)N[C@@H](CCCCn1cc(CCCC(=O)Nc2nnc(S(N)(=O)=O)s2)nn1)C(=O)NCCOCCOCCNC(=O)CN1CCN(CC(=O)O)CCN(CC(=O)O)CCN(CC(=O)O)CC1)C(=O)O)C(=O)O)(c1ccc(O)cc1)c1ccc(O)cc1 [XYIMSR-01, 2,2′,2″-(10-((14S,18S,22S)-18,22-dicarboxy-27,27-bis(4-hydroxyphenyl)-2,13,16,20,24-pentaoxo-14-(4-(4-(4-oxo-4-((5-sulfamoyl-1,3,4-thiadiazol-2-yl)amino)butyl)-1H-1,2,3-triazol-1-yl)butyl)-6,9-dioxa-3,12,15,19,23-pentaazaoctacosyl)-1,4,7,10-tetraazacyclododecane-1,4,7-triyl)triacetic acid] | 67 nM | high binding affinity | 
2 | CC(CCC(=O)N[C@@H](CC(=O)N[C@@H](CC(=O)N[C@@H](CCCCn1cc(CCCC(=O)Nc2nnc(S(N)(=O)=O)s2)nn1)C(=O)NCCOCCOCCNC(=O)CN1CCN2CCN(CC1)CC(=O)[O][Al]([F])[O]C(=O)C2)C(=O)O)C(=O)O)(c1ccc(O)cc1)c1ccc(O)cc1 [[Al^19F]XYIMSR-04, [Al^19F] 2,2′-(7-((14S,18S,22S)-18,22-dicarboxy-27,27-bis(4-hydroxyphenyl)-2,13,16,20,24-pentaoxo-14-(4-(4-(4-oxo-4-((5-sulfamoyl-1,3,4-thiadiazol-2-yl)amino)butyl)-1H-1,2,3-triazol-1-yl)butyl)-6,9-dioxa-3,12,15,19,23-pentaazaoctacosyl)-1,4,7-triazonane-1,4-diyl)diacetic acid] |  |  | 96.7 ± 3.3 nM
3 | CC(CCC(=O)N[C@@H](CC(=O)N[C@@H](CC(=O)N[C@@H](CCCCn1cc(CCCC(=O)Nc2nnc(S(N)(=O)=O)s2)nn1)C(=O)NCCOCCOCCNC(=S)Nc1ccc(CC2CN(CC(=O)O)CCN(CC(=O)O)CCN2CC(=O)O)cc1)C(=O)O)C(=O)O)(c1ccc(O)cc1)c1ccc(O)cc1.[Cu] (stereo partly drawn) [[^63/65Cu]XYIMSR-06, [^63/65Cu]2,2′,2″-(2-(4-(3-((11S,15S,19S)-15,19-dicarboxy-24,24-bis(4-hydroxyphenyl)-10,13,17,21-tetraoxo-11-(4-(4-(4-oxo-4-((5-sulfamoyl-1,3,4-thiadiazol-2-yl)amino)butyl)-1H-1,2,3-triazol-1-yl)butyl)-3,6-dioxa-9,12,16,20-tetraazapentacosyl)thioureido)benzyl)-1,4,7-triazonane-1,4,7-triyl)triacetic acid] |  |  | 156 ± 4.3 nM
4 | CC(CCC(=O)NC(CC(=O)NC(CC(=O)NC(CCCCn1cc(CCCC(=O)Nc2nnc(S(N)(=O)=O)s2)nn1)C(=O)NCCOCCOCCNC(=O)CN1CCN(CC(=O)O)CCN(CC(=O)O)CCN(CC(=O)O)CC1)C(=O)O)C(=O)O)(c1ccc(O)cc1)c1ccc(O)cc1 (stereo not shown) [[^113/115In]XYIMSR-01] | 108 nM | high binding affinity | 
5 | CC(CCC(=O)N[C@@H](CC(=O)N[C@@H](CC(=O)N[C@@H](CCCCn1cc(CCCC(=O)Nc2nnc(S(N)(=O)=O)s2)nn1)C(=O)NCCOCCOCCNC(=O)CN1CCN(CC(=O)O)CCN(CC(=O)O)CCN(CC(=O)O)CC1)C(=O)O)C(=O)O)(c1ccc(O)cc1)c1ccc(O)cc1.[Lu] [[^175Lu]XYIMSR-01, [^175Lu]2,2′,2″-(10-((14S,18S,22S)-18,22-dicarboxy-27,27-bis(4-hydroxyphenyl)-2,13,16,20,24-pentaoxo-14-(4-(4-(4-oxo-4-((5-sulfamoyl-1,3,4-thiadiazol-2-yl)amino)butyl)-1H-1,2,3-triazol-1-yl)butyl)-6,9-dioxa-3,12,15,19,23-pentaazaoctacosyl)-1,4,7,10-tetraazacyclododecane-1,4,7-triyl)triacetic acid] |  |  | 122 ± 3.8 nM
